Data from ChEMBL document CHEMBL3880393, “2-(Pyridin-2-ylamino)-pyrido[2,3-d]pyrimidin-7-ones” (2003).

Target: Fibroblast growth factor receptor (Homo sapiens, UniProt P22607+P11362+P22455+P21802)
Assay: Inhibition of FGFR (unknown origin) using poly (4:1) glutamate-tyrosine substrate and [gamma32P]ATP incubated for 10 mins by beta plate counter based assay
Format: protein assay

Structure (SMILES): O=c1ccc2cnc(Nc3ccccc3)nc2n1C1CCCC1
- IC50: 2.98 µM
